# According to patent US4696912A, “Stabilized compositions” (priority 1986, dated 1987):
# Read-outs that look alike come from different tables or passages of the source.
# Assays:
# Saccharomyces cervisiae = assay: Antifungal activity, paper disk zone of inhibition; assay type: cell-based; conditions: 12.7 mm paper disks, 500 ug/ml, overnight at 28° C., read-out: Zone diameter
# Method: (§1) Paper disks (12.7 mm in diameter) impregnated with an aqueous solution containing 500 ug of CL-1565-A/ml were placed on a layer of agar inoculated with the indicated microorganisms. After incubation overnight at 28° C., the following zones of inhibition were observed.
# Saccharomyces italicus = assay: Antifungal activity, paper disk zone of inhibition; assay type: cell-based; conditions: 12.7 mm paper disks, 500 ug/ml, overnight at 28° C.; read-out: Zone diameter
# Method: as §1
# P388 Lymphatic Leukemia = assay: In vivo antitumor activity against P388 lymphatic leukemia in mice
# From the text: In Vivo Antitumor Activity of CL-1565-A Against P388 Lymphatic Leukemia in Mice
# The test method used is based on that described in Cancer Chemother. Reports 3:1-87 (part 3). 1972.
# [1] = Stability in aqueous solution (HPLC assay); assay type: physicochemical; conditions: for remaining at 168 h / remaining at 336 h / remaining at 552 h / remaining at 48 h: aqueous solution, read-out: % CL-1565-A Remaining; for remaining at 168 h: 7 days; for remaining at 336 h: 14 days; for remaining at 48 h: 2 days
# Method: ^b Solutions prepared by adding sodium ascorbate to solutions of
# CL1565-A to yield an equimolar concentration.
# (§2) CL-1565-A content was assayed by HPLC using a uBondapak C-18 silica gel column (Waters Assoc.) and 0.05 M pH 6.8 sodium phosphate buffer--acetonitrile (89:11) as the mobile phase, at a flow rate of 2 mL/minute. The retention time of CL-1565-A in this system is approximately 4.7 minutes. Solid samples were reconstituted in 100 mL of water immediately prior to HPLC assay. Solutions of CL-1565-A were diluted to a final concentration of 300 ug/mL with water prior to assay.
# L1210 Leukemia Cells = assay: In vitro activity of CL-1565-A against L1210 leukemia cells; assay type: cell-based; conditions: Mus musculus, read-out: ID50 (the source's name)
# [2] = Stability in solid state form (HPLC assay); assay type: physicochemical; conditions: for remaining at 168 h / remaining at 504 h / remaining at 840 h: Table 1, solid state; for remaining at 168 h: 1 week; for remaining at 168 h / remaining at 504 h / remaining at 840 h / remaining at 2160 h / remaining at 3600 h / remaining at 6480 h / remaining at 16560 h: read-out: % CL-1565-A Remaining; for remaining at 504 h: 3 weeks; for remaining at 840 h: 5 weeks; for remaining at 2160 h / remaining at 3600 h / remaining at 6480 h / remaining at 16560 h: Table 3, solid form; for remaining at 2160 h: 3 months; for remaining at 3600 h: 5 months; for remaining at 6480 h: 9 months; for remaining at 16560 h: 23 months
# Method: *Samples prepared by lyophilization of 1.5 mL aliquots of an aqueous
# solution containing 15 mg of CL1565-A per ml.
# ^a Samples prepared by lyophilization of 1.5 mL of an aqueous solutio
# containing 15 mg/mL of CL1565-A in 6mL serum vials.
# ^b Samples prepared by mixing CL1565-A and sodium ascorbate (1:1 mola
# ratio) in solution prior to lyophilization.
# as §2
# [3] = Table 2, aqueous solution 5 mg/mL, 5° C.
# [4] = Table 2, aqueous solution 5 mg/mL, 25° C.
# [5] = Table 2, aqueous solution 15 mg/mL, 5° C.
# [6] = Table 2, aqueous solution 15 mg/mL, 25° C.
smiles,measurement,setting,value
CC(O)(C=CC1CC=CC(=O)O1)C(CC(O)C=CC=CC=CCO)OP(=O)(O)O (stereo not shown) [CL-1565-A],zone of inhibition at 500 µg/mL,Saccharomyces cervisiae,25 mm
same,zone of inhibition at 500 µg/mL,Saccharomyces italicus,17 mm
same,T/C × 100,"P388 Lymphatic Leukemia; 1.1 mg/kg/day, test-1",170
same,T/C × 100,"P388 Lymphatic Leukemia; 1.1 mg/kg/day, test-2",139
same,T/C × 100,"P388 Lymphatic Leukemia; 2.1 mg/kg/day, test-1",173
same,T/C × 100,"P388 Lymphatic Leukemia; 2.1 mg/kg/day, test-2",157
same,T/C × 100,"P388 Lymphatic Leukemia; 4.3 mg/kg/day, test-1",170
same,T/C × 100,"P388 Lymphatic Leukemia; 4.3 mg/kg/day, test-2",172
same,T/C × 100,"P388 Lymphatic Leukemia; 6.3 mg/kg/day, test-3",142
same,T/C × 100,"P388 Lymphatic Leukemia; 8.5 mg/kg/day, test-1",256
same,T/C × 100,"P388 Lymphatic Leukemia; 8.5 mg/kg/day, test-2",209
same,T/C × 100,"P388 Lymphatic Leukemia; 12.5 mg/kg/day, test-3",150
same,T/C × 100,"P388 Lymphatic Leukemia; 17 mg/kg/day, test-1",256
same,T/C × 100,"P388 Lymphatic Leukemia; 17 mg/kg/day, test-2",248
same,T/C × 100,"P388 Lymphatic Leukemia; 25 mg/kg/day, test-3",174
same,remaining at 168 h,[1]; [3],92%
same,remaining at 336 h,[1]; [3],83%
same,remaining at 552 h,"[1]; Table 2, aqueous solution 5 mg/mL, 5° C., 23 days",76%
same,remaining at 168 h,[1]; [4],77%
same,remaining at 336 h,[1]; [4],63%
same,remaining at 552 h,"[1]; Table 2, aqueous solution 5 mg/mL, 25° C., 23 days",45%
same,remaining at 168 h,[1]; [5],81%
same,remaining at 336 h,[1]; [5],76%
same,remaining at 552 h,"[1]; Table 2, aqueous solution 15 mg/mL, 5° C., 23 days",66%
same,remaining at 168 h,[1]; [6],67%
same,remaining at 336 h,[1]; [6],55%
same,remaining at 552 h,"[1]; Table 2, aqueous solution 15 mg/mL, 25° C., 23 days",42%
same,remaining at 168 h,"[1]; Table 2, aqueous solution 15 mg/mL, 37° C.",35%
same,remaining at 48 h,"[1]; Table 4, aqueous solution 15 mg/mL, 5° C.",90%
same,remaining at 552 h,"[1]; Table 4, aqueous solution 15 mg/mL, 5° C., 23 days",66%
same,remaining at 48 h,"[1]; Table 4, aqueous solution 15 mg/mL, 25° C.",87%
same,remaining at 552 h,"[1]; Table 4, aqueous solution 15 mg/mL, 25° C., 23 days",42%
same,degraded at 552 h,"[1]; water, 23 days, 15 mg/mL in aqueous solution, read-out: decomposition",48%
same,IC50,L1210 Leukemia Cells,0.078 µg/mL
same,remaining at 168 h,[2]; 5° C.,100%
same,remaining at 504 h,[2]; 5° C.,100%
same,remaining at 840 h,[2]; 5° C.,100%
same,remaining at 168 h,[2]; 25° C.,87%
same,remaining at 504 h,[2]; 25° C.,77%
same,remaining at 840 h,[2]; 25° C.,69%
same,remaining at 168 h,[2]; 37° C.,70%
same,remaining at 504 h,[2]; 37° C.,26%
same,remaining at 168 h,[2]; -15° C.,100%
same,remaining at 504 h,[2]; -15° C.,100%
same,remaining at 840 h,[2]; -15° C.,100%
same,remaining at 2160 h,[2]; 5°,88%
same,remaining at 3600 h,[2]; 5°,86%
same,remaining at 6480 h,[2]; 5°,79%
same,remaining at 16560 h,[2]; 5°,74%
same,remaining at 2160 h,[2]; 25°,61%
same,remaining at 2160 h,[2]; -15°,100%
same,remaining at 3600 h,[2]; -15°,100%
same,remaining at 6480 h,[2]; -15°,100%
same,remaining at 16560 h,[2]; -15°,100%
same,degraded at 840 h,"[2]; five weeks at 25° C., read-out: decomposition",31%
